# According to US20200253907A1, “Compositions and Methods for Treating Neurodegenerative Diseases” (The Regents of the University of California, priority 2017, published 2020):
# Entries after “also recorded” stand apart in the source; their conditions may differ.
# Key:
# [1] = test system: GMC101 C. elegans strain; assay: Paralysis assay in GMC101 C. elegans model of Alzheimer's disease; type: in vivo; details: for GMC101 paralysis: 4 mM, FIG. 3; for paralysis caused by Aβ: single agent, FIG. 4 (alanine 1-8 mM), FIG. 5 (KIC 2-32 mM)
# Experimental: To investigate the effects of small molecules in a C. elegans model of Alzheimer's disease, the GMC101 C. elegans strain, developed by Gawain McColl at the University of Melbourne, Australia, was used. The GMC101 C. elegans strain expresses the full length human amyloid beta 1-42 protein in the body wall muscle cells, leading to a fully penetrant age-progressive paralysis. These worms were first age-synchronized by performing an egg prep (mixed <100 gravid worms in 70 μl M9 buffer, 25 μl bleach and 5 μl 10 N NaOH). […] All worms were transferred to fresh plates on Day 5.
# [2] = test system: differentiated PC-12 cells; assay: Amyloid-beta induced cell death in differentiated PC-12 cells; type: cell-based; details: 200 μM, pretreated 2 hours before Aβ42 or Aβ25-35; 24-hour incubation; control cells 48.5±1.8%; FIG. 16
# Description: Overnight after seeding, cells were differentiated with NGF in 0.5% FCS, RPMI 1640 medium for 7 days.
smiles,measurement,setting,value
"CC[C@H](O)C(=O)O [2-HB, 2-hydroxybutyrate]",GMC101 paralysis,[1],can also delay GMC101 paralysis
"CC(O)CC(=O)O (stereo not shown) [3-HB, 3-hydroxybutyrate, reference compound]",GMC101 paralysis,[1],delay in paralysis is not observed
"CC(C)CC(=O)C(=O)O [KIC, α-ketoisocaproate]",beneficial effect in GMC101 (paralysis),[1]; 16 mM KIC alone,not observed to exhibit beneficial effects; also recorded: does not exert a beneficial effect
same,paralysis caused by Aβ,[1],reduces paralysis caused by Aβ
"CC(C)C(=O)C(=O)O [KIV, α-ketoisovalerate]",GMC101 health span,"[1]; 8 mM, FIG. 6",can extend GMC101 health span
"C[C@H](N)C(=O)O [alanine, L-alanine]",health span of GMC101,"[1]; 2 mM alanine alone, FIG. 9",can extend health span of GMC101
same,health span of GMC101,"[1]; 4 mM alanine alone, FIG. 10",can extend health span of GMC101
same,health span of GMC101,"[1]; 8 mM alanine alone, FIG. 11",can extend health span of GMC101
same,paralysis caused by Aβ,[1],can reduce paralysis caused by Aβ
"CCCCCCCCOC(=O)C(=O)CCC(=O)O [octyl α-KG, octyl α-ketoglutarate]",cells remaining alive (viable),[2],about 73±2.2%
"CCC(=O)C(=O)O [α-KB, α-ketobutyrate]",Aβ caused paralysis,"[1]; about 2 mM, FIG. 2",can delay Aβ caused paralysis
"O=C(O)CCC(=O)C(=O)O [α-KG, α-ketoglutarate]",health span of GMC101 C. elegans strain,"[1]; 2 mM, FIG. 1",can extend the health span
same,delay of paralysis compared to vehicle treatment,"[1]; 8 mM on NGM plates, worms shifted to 25° C.",22%
